Assay results from US20130240456A1, “DEVICE AND METHOD FOR LABEL-FREE SEPARATION OF MATERIAL USING MAGNETIC FIELD” (THE GOVERNING COUNCIL OF THE UNIVERSITY OF TORONTO, priority 2012, published 2013).

Legend:
neonatal rat CM [1] = conditions: constructs of treated and control cells, no significant differences
Protocol: Contractile properties of CMs were measured by field stimulation in an electrical stimulation chamber consisting of two parallel carbon electrodes spaced 1 cm apart as described in [24]. Stimulation was provided by an external electric stimulator (Grass s88x). Using monophasic pulses of 2 ms duration and frequency of 1 pulse per second, the excitation threshold (minimum voltage at which synchronous contractions of 75% of the tissue in the field of view can be observed) was first determined. Then the maximum capture rate (maximum beating frequency) was determined at 200% of the determined excitation threshold voltage.

myoglobin [2] = target: myoglobin (Mus musculus, UniProt P04247); conditions: 2.5 mM NaNO2, ratio of absorbance 635 nm/525 nm
myoglobin (Mus musculus, UniProt P04247), sequence (P04247 whole entry): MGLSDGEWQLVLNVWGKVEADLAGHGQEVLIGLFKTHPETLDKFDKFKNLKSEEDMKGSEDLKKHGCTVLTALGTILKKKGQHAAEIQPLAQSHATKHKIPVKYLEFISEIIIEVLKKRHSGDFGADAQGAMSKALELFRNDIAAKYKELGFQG
Protocol: (§1) UV-vis measurements were made in cells lysed with NP40 Lysis Buffer, for 30 min on ice, with cell debris spun down at 13000 rpm for 10 min at 4° C. […] ND-1000 Nanodrop spectrophotometer (from Nanodrop Technologies, Inc., Wilmington, Del., USA) was used to collect absorption spectra from 200-700 nm.

myoglobin [3] = target: myoglobin (Rattus norvegicus, UniProt Q9QZ76)
myoglobin (Rattus norvegicus, UniProt Q9QZ76), sequence (Q9QZ76 whole entry): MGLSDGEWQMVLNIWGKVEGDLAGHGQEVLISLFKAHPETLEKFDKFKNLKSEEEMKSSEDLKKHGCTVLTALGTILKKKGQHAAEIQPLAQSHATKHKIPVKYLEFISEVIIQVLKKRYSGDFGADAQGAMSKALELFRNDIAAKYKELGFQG
Protocol: as §1

neonatal rat CM [4] = conditions: horizontal device study
Protocol: Cell viability was determined immediately after treatment. In addition, the cells were cultivated in 3D for 7 days as described below.
Live/dead staining was performed by incubating the cells or constructs in a solution of carboxyfluorescein diacetate-succinimidyl ester (CFDA-SE, 10 μM, from Molecular Probes) and propidium iodide (PI, 2.5 μg/mL, from Molecular Probes) for 30-45 minutes at 37° C., according to the manufacturer's protocol (from Molecular Probes, Burlington, Canada). The cells were imaged using a fluorescent microscope (Leica DMIRE2, from Wetzlar, Germany). […] Following treatment, the cells were washed in HBSS, and incubated for 5 hrs in 37° C./5% CO2 incubator. Non-viable cells with compromised cell membranes could be identified by red fluorescence due to binding of PI to their nuclei, while viable cells converted CFDA-SE to the green fluorescent dye […] by esterase-mediated cleavage.
Live/dead staining was performed by incubating the cells or constructs in a solution of carboxyfluorescein diacetate-succinimidyl ester (CFDA-SE, 10 μM, from Molecular Probes) and propidium iodide (PI, 2.5 μg/mL, from Molecular Probes) for 30-45 minutes at 37° C., according to the manufacturer's protocol (from Molecular Probes, Burlington, Canada). The cells were imaged using a fluorescent microscope (Leica DMIRE2, from Wetzlar, Germany). […]

adult mouse CM = conditions: 2.5 mM NaNO2, versus untreated, unseparated control
Protocol: Adult mouse CMs were isolated and suspended in Kraft Bruhe (KB) solution at 4° C. The KB solution consisted of 120 mM K-glutamate, 10 mM KCl, 10 mM KH2PO4, 2 mM MgSO4.7H2O, 10 mM Taurine, 5 mM Creatine, 10 mM HEPES, 10 mM Glucose, 0.5 mM EGTA, 0.10% Bovine Serum Albumin (BSA) and a final pH of 7.3 adjusted with KOH. The adult mouse CMs in KB solution were then split into three groups. Each of these three KB solutions containing adult mouse CMs was then further split into four groups; in total, 12 groups of adult mouse CMs in KB solution were maintained at 4° C. and allowed to settle to the bottom of Eppendorf tubes.
The Eppendorf containing KB Solution and adult mouse CMs was left untouched. The other three Eppendorf tubes had the KB solution removed. […] The four Eppendorf tubes were then returned to 4° C. environment to allow the cells settle.
The other three Eppendorf tubes containing adult mouse CMs in the three other solutions were left at room temperature while the device was running.
At the end of the sorting process, each of the Eppendorf tubes that had been sitting at room temperature were equally split into 24-well plate wells. The sorted run was emptied into one well. An equal volume of trypan blue was added to each well. After a minute, 1 mL of either KB or HBSS and 30% FBS was added to each of the wells depending on the group. […]

With `O=NO` [NaNO2, sodium nitrite] the “excitation threshold (ET)” value (neonatal rat CM [1]) was “about 4.5±1.3 V/cm”, the “maximum capture rate (MCR)” value (neonatal rat CM [1]) was “about 8.3±1.0 pps” and the “time of maximum metmyoglobin induction after nitrite was introduced” value (myoglobin [2]) was “about 45 min”. The “conversion of Mb to metMb” value (myoglobin [3]; 50 mM NaNO2, 30 min, referencing to the 1 hr time point) was 92±3.5%, the “time at which metMb induction reached the equilibrium value” (myoglobin [3]; 50 mM NaNO2, transient study) was 30 min and the “semi-quantitative fold conversion to metMb” value (myoglobin [3]; 50 mM NaNO2, transient study, stabilized value) was “about 10 times the initial metMb amount”. For the same compound, the “viability of CMs after treatment with NaNO2 (FIGS. 23A and 23B)” value (neonatal rat CM [4]) was “unaffected” and the “viability of adult mouse CM after separation and subsequent culture for 24 hr” value (adult mouse CM) was “not compromised”.
